Columns and labels:
A549 cells = experiment: Cisplatin treatment of A549 cells with or without ME2 knockdown, trypan blue count; assay type: cell-based, human; conditions: 20 μM cisplatin, 72 h
Description: ME2 knockdown and control cells were plated in 6-well plates, and 24 h later, the cell were treated with 20 μM cisplatin. After 72 h, cells were stained with trypan blue and live cells were counted. […] Approximately 5×10^6 ME2 deficient cells from ME2 specific shRNA or control pLKO cells were subcutaneously implanted into female athymic nude mice as described in Materials and Methods. Tumor size was measured and calculated. C: Depletion of ME2 inhibits mucin-1 and vimentin expression and increase differentiation marker E-cadherin and ZO-1 expression in vivo.

A549 xenograft tumors = experiment: Cisplatin treatment of xenograft tumors from wild type and ME2 knockdown A549 cells; assay type: in vivo, athymic nude mice
Description: ME2 knockdown and control cells were plated in 6-well plates, and 24 h later, the cell were treated with 20 μM cisplatin. After 72 h, cells were stained with trypan blue and live cells were counted. […] Approximately 5×10^6 ME2 deficient cells from ME2 specific shRNA or control pLKO cells were subcutaneously implanted into female athymic nude mice as described in Materials and Methods. Tumor size was measured and calculated. C: Depletion of ME2 inhibits mucin-1 and vimentin expression and increase differentiation marker E-cadherin and ZO-1 expression in vivo. Animal experiments were performed under federal guidelines and approved by the Institutional Animal Care and Use Committee (IACUC) of the Beth Israel Deaconess Medical Center (Approval number 0342007). A549 xenografts in nude mice were generated by following the description of […] et al., in Biochem. Pharmacol. 72: 671-680 (2006). Briefly, approximately 10^7 ME2 deficient or control A549 cells resuspended in 200 μl of a serum-free culture medium/Matrigel mixture (1:1) were subcutaneously injected into the right and left flanks of male nude/nu/nu athymic mice, respectively. Tumor-bearing mice were sacrificed after 6-8 weeks and tumor masses were measured or imaged before excision. […]

K562 cell = conditions: supplementation; Ren et al., PLoS One 5 (2010); cited from earlier work

SMILES: N.N.[Cl][Pt][Cl] [cisplatin]
- sensitivity of A549 cells to cisplatin treatment with ME2 deficiency (A549 cells): increased the sensitivity
- later growth of ME2 knockdown tumors (resumed at about 350 mm^3) (A549 xenograft tumors; ME2 knockdown A549 xenografts): prevent this later tumor growth
- E-cadherin and mucin-1 expression in vivo (A549 xenograft tumors; combination of ME2 depletion and cisplatin): affected

SMILES: O=C([O-])CC(O)C(=O)[O-].[Na+].[Na+] (stereo not shown) [sodium malate]
- K562 cell differentiation (K562 cell): failed to induce
